Laboratory results: PMC8688747 (Drug Design, Development and Therapy, 2021)
Read-outs that look alike come from different tables or passages of the source.

Assays:
[1] = target: T1, Mcl-1 (myeloid cell leukemia-1) (Homo sapiens, UniProt Q07820); assay: 1H-15N HSQC NMR titration; format: binding
[2] = target: T1, Mcl-1 (myeloid cell leukemia-1); assay: 1H-15N HSQC NMR titration; format: binding; remark: listed apart in the source

T1 sequence (Q07820 172-327): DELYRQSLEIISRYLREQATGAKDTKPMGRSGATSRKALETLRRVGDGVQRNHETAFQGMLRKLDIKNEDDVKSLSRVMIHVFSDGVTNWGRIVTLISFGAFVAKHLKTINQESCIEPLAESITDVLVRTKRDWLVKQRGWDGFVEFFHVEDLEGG

Kd [1]	Kd [2]	SMILES
~300 µM		O=C(O)c1ccc(-n2nc(-c3ccccc3O)nc2-c2ccccc2O)cc1 [Deferasirox]
	~1000 µM	Cc1cccc(Nc2ccncc2S(=O)(=O)NC(=O)NC(C)C)c1 [Torsemide]
